The source of these data is patent publication US7341991B2, “Inhibitors of amyloid precursor protein processing” (Posco, priority 2004, dated 2008).

Assay [1] has as its system Substrate M (SEVNLDAEFR, β-secretase cleavage site of APPsw). The assay is described as follows: Binding of biotin-labeled Substrate M to immobilized complementary (HC) peptides. Conditions: biotin-labeled Sub M, peptide immobilized on plate. The procedure:
(§1) Complementary peptides (0.2, 2, 20, and 200 μM) were dissolved in phosphate buffered saline (PBS) (pH 7.4) and fixed to microtiter wells for 5 hr at 37° C. The wells were blocked with blocking buffer (3% BSA/PBS) for 1 hr at 37° C. Either N-terminally biotinylated Substrate W or M (20 μM) in blocking buffer was added and incubated for overnight at 4° C. Streptavidin-horseradish peroxidase in blocking buffer was added to detect resulting bound substrates. The plate was incubated for 2 hr at room temperature (RT), followed by addition of 3, 3′, 5,5′-tetramethyl-benzidine (TMB) as substrate for horseradish peroxidase for color reaction.
(§2) Reacti-Bind™ maleic anhydride-activated polystyrene plate (Pierce, IL, USA) was coated with 50 μl of HC peptide (200 μM in distilled water) by chemical coupling for 3 h at room temperature (RT) and washed three times with phosphate buffered saline (PBS) containing 0.05% tween 20 (PBST). The plate was blocked with blocking buffer (0.5% gelatin in PBS) for 1 h at RT. After discarding blocking buffer, biotinylated BACE1 substrates (200 μM) in blocking buffer was applied on the plate and incubated for 2.5 h at RT. Each well was washed three times with PBST. The bound biotinylated BACE1 substrates were detected by incubation with streptavidin-horseradish peroxidase (Str-HRP, 125 mU/ml in blocking buffer) for 2 h at RT. Color reaction was carried out with 50 μl of 3,3′,5,5′-Tetramethylbenzidine Liquid Substrate (Sigma-Aldrich, MO, USA). After stopping the reaction by addition of an equal volume of 1 N HCl, absorbance at 450 nm was read in an automated ELISA reader (EL 312e, Bio-Tek Instruments, VT, USA). All assays were carried out in duplicate.

For assay [2], the system named is APP processing in HEK293-APP cells. The assay is described as follows: Cell based assay of APP processing (βCTF, Western blot) in HEK293-APP cells. More on the design: species or system human. On the procedure: In the neuronal cells of the brain, APP is processed by α-secretase or β-secretase. To investigate the effects of the inhibitors on the cell, a cell based assay system was developed as described in FIG. 10. C-terminal fragment of APP remaining on the cell membrane was detected by Western blot. The resulting C-terminal fragments, αCTF or βCTF are further processed by γ-secretase. However, if the cells are treated with the γ-secretase inhibitor, this processing is blocked. As a result, αCTF or βCTF accumulate in the cell. If β-secretase inhibitor or APP inhibitor is added, this processing is blocked and βCTF disappears.
To test APP inhibitor activities in cells, three complementary peptides, c-Sub M, c-Sub MΔC6, and c-Sub MΔN1C1, which show high absorbance in binding test, were added to whole cell extracts of HEK293-APP cells (Lanes 2, 3, and 4 in FIG. 11). In addition, γ-secretase inhibitor and cholesterol were added to the cells to increase βCTF level. Commercially available peptide-based β-secretase inhibitor was included as control (Lane 6, FIG. 11). To detect the N-terminal fragment of β-amyloid which is a product of APP processing, 6E10 antibody was employed. […] Recently, it has been reported that the commercially available peptide-based inhibitor had to be linked to an oligoarginine transporter peptide to have inhibitory activity against cells. Therefore, mimetic approach is adopted to produce cell permeable analogs. (Chang et al. J. Neurochemistry 2004; 89:1409-1416).
After confirming the ability of the oligo-arginine coupled APP inhibitors to enter the cells, the inhibitors were applied to HEK293-APP cells overexpressing APP to test their inhibitory activities on APP processing. […] This inhibitor started to show significant inhibitory activity beginning from 0.1 μM (lower panel).
For orientation: A western blot detects proteins with antibodies after separation by electrophoresis.

Assay [3] concerns cleavage of Substrate M by rhBACE (recombinant human β-secretase). As to the kind of experiment: Fluorometric (FRET) assay for cleavage of F-Substrate M by β-secretase. The assay is classed as biochemical. The following applies: for inhibition of cleavage of Substrate M by β-secretase: in vitro; for inhibitory activity of deletion peptides on cleavage of Substrate M: 10 inhibitor/substrate ratio, Substrate M 50 μM; for inhibitory activity group on Substrate M cleavage: tested at various concentrations (FIG. 8). An excerpt:
This assay system utilizes fluorescence resonance energy transfer (FRET) technology. Substrate M was synthesized with two fluorophores, a fluorescent donor and a proprietary quenching acceptor (purchased from a commercial source, R&D Systems). […] Upon cleavage of substrate by β-secretase, the fluorophore is separated from the quenching group, restoring the full fluorescence yield of donor.
Substrate labeled with fluorophores will be called F-Substrate M (R&D Systems). Recombinant human β-secretase will be called rhBACE (recombinant human β-site APP cleavage enzyme) (purchased from R&D systems).
[…] Cleavage by rhBACE was detected by reading emitted fluorescence level.
In this assay system, fluorescence resonance energy transfer (FRET) technology was utilized. […] After pre-incubation, substrate and HC peptide mixture in assay buffer was transferred to FluoroNunc™ 96 well white plate (Nunc, Roskilde, Denmark), and rhBACE1 (70 nM) was added. Time-dependent emission of fluorescence (excitation at 320 nm, emission at 405 nm) was monitored in a Molecular Devices SpectraMax Gemini EM fluorescence reader (CA, USA) for 1 h at 37° C. All assays were carried out in duplicate.

Assay [4] addresses T1, Substrate W (SEVKMDAEFR, β-secretase cleavage site of wild type APP) (Homo sapiens, UniProt P05067).
T1 construct: purchased Peptron, Inc; host or cells: chemical synthesis
The assay is described as follows: Binding of biotin-labeled Substrate W to immobilized complementary (HC) peptides. Conditions: biotin-labeled Sub W, peptide immobilized on plate. The procedure:
as §1
In particular, for Substrate W, complementary peptides (200 μM) dissolved in phosphate buffered saline (PBS) (pH 7.4) were chemically coupled to Reacti-Bind Maleic Anhydride Activated Polystyrene wells (Pierce Biotechnology, Inc.) for overnight at room temperature (RT). Remaining active sites of the plate were inactivated by adding ethanolamine (1 M) for 1 hr at RT. The wells were blocked with blocking buffer (3% BSA/PBS) for 1 hr at RT. N-terminally biotinylated Substrate W (20 μM) in blocking buffer was added and incubated for 3 hr at RT. Streptavidin-horseradish peroxidase in blocking buffer was added to detect resulting bound substrates. The plate was incubated for 2 hr at room temperature (RT), followed by addition of 3,3′,5,5′-tetramethyl-benzidine (TMB) as substrate for horseradish peroxidase for color reaction.
as §2

Assay [5] relates to Aβ production in HEK 293-APP cells. As to the kind of experiment: Measurement of Aβ level in culture media (Aβ1-40 immunoassay). The assay is classed as cell-based, human. The following applies: HEK293-APP cells. The procedure: Human embryonic kidney (HEK) 293 cells stably transformed with the gene for APP695 (HEK 293-APP) were used for studies on the inhibitory activity of HC peptides. HEK 293-APP cells were generously supplied by Dr. T W Kim (Columbia University, NY, USA). HEK 293-APP cells were cultured in Dulbecco's Modified Eagle's Medium (DMEM) (Invitrogen, CA, USA) with 10% fetal bovine serum (HyClone, UT, USA) and 300 μg/ml of geneticin (Invitrogen, CA, USA) in a humidified atmosphere of 5% CO2, 95% air at 37° C. Cells were subcultured after trypsinization, and the medium was changed every 2-3 days.
The culture media from the peptide-treated cells (see above) was harvested and centrifuged at 3500×g for 10 min. Amount of Aβ in the supernatant was determined with human Aβ1-40 immunoassay kits (Signal Select™, BioSource, CA, USA) according to the instruction provided by the company.

For assay [6], the system named is cleavage of APP by BACE1 (CTFβ) in HEK 293-APP cells. The assay is described as follows: Level of CTFβ in treated cells (immunoblot, 6E10). The assay is classed as cell-based, human. Conditions: HEK293-APP cells; for accumulation of cleavage product CTFβ: 9 h. The procedure: When the confluency of the cells reached 90%, the cells were washed with PBS once, and HC peptide in serum free DMEM was added to the cells. […] The lysed cells were centrifuged at 12000×g for 10 min at 4° C. The protein in the supernatant was determined by bicinchoninic acid assay (Pierce, IL, USA) [Smith, P. K., Krohn, R. I., Hermanson, G. T., Mallia, A. K., Gartner, F. H., Provenzano, M. D., Fujimoto, E. K., Goeke, N. M., Olson, B. J., and Klenk, D. C. […] After electrophoresis, the proteins in the gel were electrophoretically transferred onto a polyvinylidene difluoride (PVDF) membrane at 100 mA for 80 min. The blotted membrane was fixed with 0.2% glutaraldehyde in PBS for 45 min at RT and treated for 5 min in boiling PBS. CTFβ (the C-terminal fragment of APP generated by BACE1) was detected by treatment of the membrane with 0.5 μg/ml of anti-Aβ N terminal 6E10 antibody (Signetlabs, Inc., MA, USA) followed by incubation with 0.2 μg/ml of anti-mouse antibody coupled with HRP (Amersham Biosciences Ltd. Uppsala, Sweden). The developed film was scanned and the density of CTFβ band was determined by Scion Image Program (Scion Corporation, MD, USA).

“Also recorded” adds a separate entry of the source. Primed or numbered codes have the meaning given here. Where no end group is shown, it is not given here. [ ]: non-standard residue; d: D form. FITC′ = fluorescein isothiocyanate label; Ahx = NCCCCCC(=O)O

In the case of SEFCIQIHF [c-Sub M ΔC1], the “binding to Substrate M” value in assay [1] is given as “relatively high binding activity”.

With SEFC [c-Sub MΔC6], the “inhibitory activity on APP processing” value in assay [2] (βCTF) is reported as “none of the inhibitors tested showed inhibitory activity”.

Turning to “c-Sub MΔN1C1-R9: c-Sub MΔN1C1 coupled with oligo-arginine (9 Arginines), labeled with FITC using a linker AHX ({FITC′-Ahx}-EFCIQIHFRRRRRRRRR)”, the “inhibitory activity on APP processing” value in assay [2] (βCTF) was “inhibitory activity in a concentration dependent manner”. The “inhibition of cleavage of Substrate M by β-secretase” value (from here on “inhibition … by β-secretase”) in assay [3] (rhBACE1) is “less inhibitory activity”.

On to CIQIHF (CIQIHF-NH2) [c-Sub M ΔN3C1], for which, in assay [3], the “inhibitory activity of deletion peptides on cleavage of Substrate M” value is listed as “considerable inhibitory activity” and the “inhibitory activity group on Substrate M cleavage” value (“inhibitory activity group” below) is reported as “less activity”. The “inhibitory activity for cleavage of f-Sub M by rhBACE1” value (“inhibitory activity for cleavage” below) in assay [3] (HC peptide 0.5 mM, f-Sub M 10 μM (Table 2)) is given as “without sacrificing the inhibitory activity too much”. Further, in assay [3] (rhBACE1), the “inhibition … by β-secretase” value is “maintains much of the original activity of c-Sub M; also recorded: less active than longer HC peptide”. The “inhibitory activity relative to c-Sub M ΔN1C1” value in assay [3] (substrate concentration 10 μM) is reported as “about one tenth”.

Take SEFCIQI (SEFCIQI-NH2) [c-SubM ΔC3]: the “inhibitory activity group” value in assay [3] is recorded as “most active”.

For RLHLDLRLKA [Sub M-c], the “inhibitory activity for cleavage” value in assay [3] (HC peptide 1 mM, f-Sub M 10 μM) is recorded as “not”. Further, the “inhibition … by β-secretase” value in assay [3] (rhBACE1) is given as “do not inhibit cleavage”. In addition, the “binding to Substrate M” value in assay [1] was “do not bind and not”.

Turning to RLHFYLRLKA [Sub W-c], the “binding to Substrate W” value in assay [4] is “do not bind”. The “inhibition … by β-secretase” value in assay [3] (rhBACE1) is “do not inhibit cleavage”.

Take SEFCI (SEFCI-NH2) [c-SubM ΔC5]: in assay [3], the “inhibitory activity group” value was “medium activity”.

On to SEFCIHLHFR (SEFCIHLHFR-NH2) [c-Sub W], for which the “binding to Substrate W” value in assay [4] is “bind”. Moreover, the “inhibitory activity for cleavage” value in assay [3] (HC peptide 1 mM, f-Sub M 10 μM) is reported as “higher inhibitory activity”. Moreover, the “inhibition … by β-secretase” value in assay [3] (rhBACE1) is on record as “inhibit cleavage”. In addition, the “inhibitory activity group” value in assay [3] is listed as “medium activity”. In addition, the “binding to Substrate M” value in assay [1] is given as “weak but significant binding”.

For “c-Sub M-R9: c-Sub M coupled with oligo-arginine (9 Arginines), labeled with FITC using a linker AHX ({FITC′-Ahx}-SEFCIQIHFRRRRRRRRRR)”, the “inhibitory activity on APP processing” value is “no inhibitory activity” in assay [2] (10 μM) and “some inhibitory activity” in assay [2] (low concentration). The “inhibition … by β-secretase” value in assay [3] (rhBACE1) was “no inhibitory activity”.

CIQI (CIQI-NH2) [C-Sub MΔN3C3]: in assay [3], the “inhibitory activity of deletion peptides on cleavage of Substrate M” value is “considerable inhibitory activity” and the “inhibitory activity group” value is given as “medium activity”.

In the case of “NH2-(CH2)5-CO—Cys-Ile-Gln-Ile-His-Phe-NH2 ([Ahx]CIQIHF-NH2; N-terminus assumed; SMILES CC[C@H](C)[C@H](NC(=O)[C@H](CCC(N)=O)NC(=O)[C@@H](NC(=O)[C@H](CS)NC(=O)CCCCCN)[C@@H](C)CC)C(=O)N[C@@H](Cc1c[nH]cn1)C(=O)N[C@@H](Cc1ccccc1)C(N)=O) [AHX-c-Sub M ΔN3C1]”, the “reduction of amount of Aβ released” value in assay [5] (6.25 μM, 9 h) was “about 70%”. In addition, the “inhibition of Aβ production / APP processing in the cells” value in assay [5] is “reduced in a concentration dependent manner”. In addition, the “in vitro inhibitory activity relative to non-modified c-Sub M ΔN3C1” value in assay [3] (f-Sub M, rhBACE1) is “half”. Besides, in assay [6], the “forms of CTFβ whose accumulation is inhibited” value is on record as “both forms” and the “accumulation of cleavage product CTFβ” value is reported as “inhibited accumulation”.

“β-secretase inhibitor IV [reference compound]”: in assay [5] (2 μM), the “inhibition of production of Aβ” value was “about 90%”. In addition, in assay [6], the “forms of CTFβ whose accumulation is inhibited” value is listed as “only the nonphosphorylated form” and the “accumulation of cleavage product CTFβ” value was “inhibited accumulation”.
